Experimental data reported in PubChem BioAssay (NCI).
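GI50: concentration for 50% inhibition of growth. TGI: total growth inhibition.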

Legend:
Test in all cases: NCI-60 cell line screen, 384-well format; in the data active means GI50 below about 0.43 µM; inactive means the rest
[1] = system: HOP-92 NSCLC
[2] = system: OVCAR-3 ovarian
[3] = system: HOP-62 NSCLC
[4] = system: SR leukemia
[5] = system: SK-MEL-5 melanoma
[6] = system: MALME-3M melanoma
[7] = system: SK-MEL-2 melanoma
[8] = system: PC-3 prostate
[9] = system: SF-268 CNS
[10] = system: MDA-MB-435 melanoma
[11] = system: MOLT-4 leukemia
[12] = system: SF-295 CNS
[13] = system: OVCAR-5 ovarian
[14] = system: DU-145 prostate
[15] = system: COLO 205 colon
[16] = system: NCI-H322M lung
[17] = system: MCF7 breast
[18] = system: EKVX NSCLC
[19] = system: NCI-H226 lung
[20] = system: RPMI-8226 leukemia
[21] = system: HS 578T breast
[22] = system: M14 melanoma
[23] = system: SW-620 colon
[24] = system: ACHN renal
[25] = system: UACC-257 melanoma
[26] = system: KM12 colon
[27] = system: NCI-H522 lung
[28] = system: HCT-15 colon

NC(=O)c1ccc(I)c([N+](=O)[O-])c1
95.7 µM: TGI [16]
39.9 µM: TGI [13]
58.4 µM: TGI [2]
78.9 µM: TGI [20]
42.8 µM: TGI [1]
30.1 µM: TGI [27]
inactive: GI50 [1] 21.7 µM | GI50 [2] 23.6 µM | GI50 [3] 17.9 µM | GI50 [4] 25 µM | GI50 [5] 25.2 µM | GI50 [6] 40.6 µM | GI50 [7] 26.8 µM | GI50 [8] > 100 µM | GI50 [9] > 100 µM | GI50 [10] > 100 µM | GI50 [11] 20.5 µM | GI50 [12] > 100 µM | GI50 [13] 21 µM | GI50 [14] > 100 µM | GI50 [15] > 100 µM | GI50 [16] 33 µM | GI50 [17] > 100 µM | GI50 [18] 19.4 µM | GI50 [19] 53.4 µM | GI50 [20] 33 µM | GI50 [21] 32.4 µM | GI50 [22] 31 µM | GI50 [23] > 100 µM | GI50 [24] > 100 µM | GI50 [25] 39.8 µM | GI50 [26] 57.4 µM | GI50 [27] 15.4 µM | GI50 [28] 44.1 µM
35.2 µM: TGI [18]
38.8 µM: TGI [11]
89.3 µM: TGI [5]
57.3 µM: TGI [4]
36.7 µM: TGI [3]
> 100 µM: TGI [6] | TGI [8] | TGI [9] | TGI [10] | TGI [12] | TGI [14] | TGI [15] | TGI [17] | TGI [19] | TGI [21] | TGI [22] | TGI [23] | TGI [24] | TGI [25] | TGI [26] | TGI [28]
72.8 µM: TGI [7]
